This note sets out measurements from ChEMBL document CHEMBL3991601, “The target landscape of clinical kinase drugs” (Science, 2017).

Targets include LIM domain kinase 2 (Homo sapiens, UniProt P53671); Myosin-14 (Homo sapiens, UniProt Q7Z406); Activated CDC42 kinase 1 (Homo sapiens, UniProt Q07912).
Assay [1] has as its target Bone morphogenetic protein receptor type-1A (Homo sapiens, UniProt P36894).
Assay [2] has as its target Cyclin-dependent kinase 13 (Homo sapiens, UniProt Q14004).
The target in assay [3] is Chromodomain-helicase-DNA-binding protein 4 (Homo sapiens, UniProt Q14839).
The target in assay [4] is Casein kinase I isoform alpha (Homo sapiens, UniProt P48729).
Casein kinase I isoform alpha, sequence (P48729 whole entry, canonical isoform): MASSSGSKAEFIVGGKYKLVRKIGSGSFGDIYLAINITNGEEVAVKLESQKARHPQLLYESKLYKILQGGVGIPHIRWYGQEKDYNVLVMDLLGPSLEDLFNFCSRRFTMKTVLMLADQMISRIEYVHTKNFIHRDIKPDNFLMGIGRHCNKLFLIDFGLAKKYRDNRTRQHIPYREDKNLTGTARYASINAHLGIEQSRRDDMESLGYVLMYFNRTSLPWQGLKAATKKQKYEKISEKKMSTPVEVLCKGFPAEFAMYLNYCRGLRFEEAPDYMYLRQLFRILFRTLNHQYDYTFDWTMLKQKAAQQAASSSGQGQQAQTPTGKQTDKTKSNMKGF
The next assay deals with T1, Scaffold protein ILK (Homo sapiens, UniProt Q13418).
T1 sequence (Q13418 whole entry): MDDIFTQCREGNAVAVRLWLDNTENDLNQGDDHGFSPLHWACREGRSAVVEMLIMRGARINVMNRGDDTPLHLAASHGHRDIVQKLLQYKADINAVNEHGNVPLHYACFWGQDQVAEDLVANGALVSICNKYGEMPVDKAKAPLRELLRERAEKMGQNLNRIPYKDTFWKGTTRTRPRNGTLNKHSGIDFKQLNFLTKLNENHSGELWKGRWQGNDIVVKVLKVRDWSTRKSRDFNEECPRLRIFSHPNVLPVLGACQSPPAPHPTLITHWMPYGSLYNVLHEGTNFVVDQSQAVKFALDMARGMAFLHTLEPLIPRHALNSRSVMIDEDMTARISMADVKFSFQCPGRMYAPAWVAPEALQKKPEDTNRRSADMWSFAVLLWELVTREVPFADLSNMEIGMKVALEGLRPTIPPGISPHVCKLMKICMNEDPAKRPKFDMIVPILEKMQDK

Assay [5] addresses T2, Mitogen-activated protein kinase kinase kinase 2 (Homo sapiens, UniProt Q9Y2U5).
T2 sequence (Q9Y2U5 whole entry): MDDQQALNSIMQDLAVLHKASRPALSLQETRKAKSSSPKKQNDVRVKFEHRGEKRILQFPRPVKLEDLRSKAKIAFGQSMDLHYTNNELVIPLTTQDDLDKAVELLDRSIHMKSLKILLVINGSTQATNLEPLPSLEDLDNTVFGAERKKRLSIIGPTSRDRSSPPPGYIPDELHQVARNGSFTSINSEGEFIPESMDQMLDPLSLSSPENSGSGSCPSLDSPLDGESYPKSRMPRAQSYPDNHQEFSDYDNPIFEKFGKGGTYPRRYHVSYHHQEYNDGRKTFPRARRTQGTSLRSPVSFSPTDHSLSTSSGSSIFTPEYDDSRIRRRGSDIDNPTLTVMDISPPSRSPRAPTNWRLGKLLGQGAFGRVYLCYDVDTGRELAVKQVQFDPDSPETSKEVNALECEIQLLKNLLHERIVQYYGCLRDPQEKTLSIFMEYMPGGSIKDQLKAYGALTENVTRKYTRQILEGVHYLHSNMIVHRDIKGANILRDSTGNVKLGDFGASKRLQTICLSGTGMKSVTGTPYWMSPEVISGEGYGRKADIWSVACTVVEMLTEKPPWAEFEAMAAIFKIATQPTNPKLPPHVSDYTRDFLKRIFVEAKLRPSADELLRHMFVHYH

Assay [6] addresses T3, Mitogen-activated protein kinase kinase kinase 5 (Homo sapiens, UniProt Q99683).
T3 sequence (Q99683 whole entry): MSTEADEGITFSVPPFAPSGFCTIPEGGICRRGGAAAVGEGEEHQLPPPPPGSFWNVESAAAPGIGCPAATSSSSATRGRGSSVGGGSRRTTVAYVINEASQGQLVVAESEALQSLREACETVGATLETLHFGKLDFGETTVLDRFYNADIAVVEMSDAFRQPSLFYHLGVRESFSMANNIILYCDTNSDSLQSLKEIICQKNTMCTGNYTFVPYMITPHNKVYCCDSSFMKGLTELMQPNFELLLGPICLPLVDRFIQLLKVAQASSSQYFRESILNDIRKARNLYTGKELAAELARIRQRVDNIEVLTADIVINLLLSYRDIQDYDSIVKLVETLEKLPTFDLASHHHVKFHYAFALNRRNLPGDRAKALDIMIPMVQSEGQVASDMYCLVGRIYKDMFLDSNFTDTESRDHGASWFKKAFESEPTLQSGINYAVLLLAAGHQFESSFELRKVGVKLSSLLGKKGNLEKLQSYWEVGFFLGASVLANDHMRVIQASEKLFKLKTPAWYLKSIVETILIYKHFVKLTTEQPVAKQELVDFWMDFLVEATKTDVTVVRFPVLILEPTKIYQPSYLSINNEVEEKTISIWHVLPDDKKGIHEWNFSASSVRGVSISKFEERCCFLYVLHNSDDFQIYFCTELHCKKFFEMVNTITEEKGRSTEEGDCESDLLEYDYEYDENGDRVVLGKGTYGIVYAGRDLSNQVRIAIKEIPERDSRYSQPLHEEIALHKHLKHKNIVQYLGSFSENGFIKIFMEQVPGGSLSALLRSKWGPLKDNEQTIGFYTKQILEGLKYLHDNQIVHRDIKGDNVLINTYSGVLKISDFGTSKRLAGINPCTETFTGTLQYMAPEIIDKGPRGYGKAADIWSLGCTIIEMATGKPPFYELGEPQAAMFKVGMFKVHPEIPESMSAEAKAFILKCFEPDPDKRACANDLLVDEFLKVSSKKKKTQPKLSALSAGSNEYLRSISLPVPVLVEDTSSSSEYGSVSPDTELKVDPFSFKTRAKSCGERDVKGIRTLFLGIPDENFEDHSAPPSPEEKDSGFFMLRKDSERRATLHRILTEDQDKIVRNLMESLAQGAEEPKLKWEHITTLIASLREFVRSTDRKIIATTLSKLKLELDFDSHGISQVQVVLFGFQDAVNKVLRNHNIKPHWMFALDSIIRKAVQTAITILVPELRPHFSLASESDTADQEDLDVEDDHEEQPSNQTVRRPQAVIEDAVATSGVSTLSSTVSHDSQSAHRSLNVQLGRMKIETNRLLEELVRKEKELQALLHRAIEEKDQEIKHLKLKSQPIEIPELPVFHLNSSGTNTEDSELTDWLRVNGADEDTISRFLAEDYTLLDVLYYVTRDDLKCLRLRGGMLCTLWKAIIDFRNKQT

For assay [7], the target named is Mitogen-activated protein kinase 11 (Homo sapiens, UniProt Q15759).
The target in assay [8] is Maternal embryonic leucine zipper kinase (Homo sapiens, UniProt Q14680).
Maternal embryonic leucine zipper kinase, sequence (Q14680 whole entry): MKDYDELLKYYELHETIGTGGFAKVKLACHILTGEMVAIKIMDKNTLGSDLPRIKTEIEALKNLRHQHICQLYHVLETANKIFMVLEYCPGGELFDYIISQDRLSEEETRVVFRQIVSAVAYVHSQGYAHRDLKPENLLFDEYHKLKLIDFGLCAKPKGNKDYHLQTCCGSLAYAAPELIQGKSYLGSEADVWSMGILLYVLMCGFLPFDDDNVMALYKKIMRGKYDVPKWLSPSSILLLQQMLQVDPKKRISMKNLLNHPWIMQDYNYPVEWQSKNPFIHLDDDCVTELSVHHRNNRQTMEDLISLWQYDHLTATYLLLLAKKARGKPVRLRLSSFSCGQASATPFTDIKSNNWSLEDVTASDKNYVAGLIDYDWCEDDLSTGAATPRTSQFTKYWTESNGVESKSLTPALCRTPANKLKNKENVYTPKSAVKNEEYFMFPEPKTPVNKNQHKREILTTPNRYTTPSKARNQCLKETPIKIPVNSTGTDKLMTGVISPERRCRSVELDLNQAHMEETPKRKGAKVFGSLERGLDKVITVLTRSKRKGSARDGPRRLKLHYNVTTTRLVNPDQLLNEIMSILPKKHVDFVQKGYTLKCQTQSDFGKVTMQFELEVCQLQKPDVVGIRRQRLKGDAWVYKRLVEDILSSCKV
Assay [9] concerns the target Proto-oncogene tyrosine-protein kinase Src (Homo sapiens, UniProt P12931).

Calls of active or inactive are those of the source. Cut-off read from the data, not from the text of the source, for most assays here: actives have a measured Kd and inactives only a lower limit.
Note: in the data inactive means no Kd found up to 30 µM.

Myosin-14, sequence (Q7Z406 whole entry): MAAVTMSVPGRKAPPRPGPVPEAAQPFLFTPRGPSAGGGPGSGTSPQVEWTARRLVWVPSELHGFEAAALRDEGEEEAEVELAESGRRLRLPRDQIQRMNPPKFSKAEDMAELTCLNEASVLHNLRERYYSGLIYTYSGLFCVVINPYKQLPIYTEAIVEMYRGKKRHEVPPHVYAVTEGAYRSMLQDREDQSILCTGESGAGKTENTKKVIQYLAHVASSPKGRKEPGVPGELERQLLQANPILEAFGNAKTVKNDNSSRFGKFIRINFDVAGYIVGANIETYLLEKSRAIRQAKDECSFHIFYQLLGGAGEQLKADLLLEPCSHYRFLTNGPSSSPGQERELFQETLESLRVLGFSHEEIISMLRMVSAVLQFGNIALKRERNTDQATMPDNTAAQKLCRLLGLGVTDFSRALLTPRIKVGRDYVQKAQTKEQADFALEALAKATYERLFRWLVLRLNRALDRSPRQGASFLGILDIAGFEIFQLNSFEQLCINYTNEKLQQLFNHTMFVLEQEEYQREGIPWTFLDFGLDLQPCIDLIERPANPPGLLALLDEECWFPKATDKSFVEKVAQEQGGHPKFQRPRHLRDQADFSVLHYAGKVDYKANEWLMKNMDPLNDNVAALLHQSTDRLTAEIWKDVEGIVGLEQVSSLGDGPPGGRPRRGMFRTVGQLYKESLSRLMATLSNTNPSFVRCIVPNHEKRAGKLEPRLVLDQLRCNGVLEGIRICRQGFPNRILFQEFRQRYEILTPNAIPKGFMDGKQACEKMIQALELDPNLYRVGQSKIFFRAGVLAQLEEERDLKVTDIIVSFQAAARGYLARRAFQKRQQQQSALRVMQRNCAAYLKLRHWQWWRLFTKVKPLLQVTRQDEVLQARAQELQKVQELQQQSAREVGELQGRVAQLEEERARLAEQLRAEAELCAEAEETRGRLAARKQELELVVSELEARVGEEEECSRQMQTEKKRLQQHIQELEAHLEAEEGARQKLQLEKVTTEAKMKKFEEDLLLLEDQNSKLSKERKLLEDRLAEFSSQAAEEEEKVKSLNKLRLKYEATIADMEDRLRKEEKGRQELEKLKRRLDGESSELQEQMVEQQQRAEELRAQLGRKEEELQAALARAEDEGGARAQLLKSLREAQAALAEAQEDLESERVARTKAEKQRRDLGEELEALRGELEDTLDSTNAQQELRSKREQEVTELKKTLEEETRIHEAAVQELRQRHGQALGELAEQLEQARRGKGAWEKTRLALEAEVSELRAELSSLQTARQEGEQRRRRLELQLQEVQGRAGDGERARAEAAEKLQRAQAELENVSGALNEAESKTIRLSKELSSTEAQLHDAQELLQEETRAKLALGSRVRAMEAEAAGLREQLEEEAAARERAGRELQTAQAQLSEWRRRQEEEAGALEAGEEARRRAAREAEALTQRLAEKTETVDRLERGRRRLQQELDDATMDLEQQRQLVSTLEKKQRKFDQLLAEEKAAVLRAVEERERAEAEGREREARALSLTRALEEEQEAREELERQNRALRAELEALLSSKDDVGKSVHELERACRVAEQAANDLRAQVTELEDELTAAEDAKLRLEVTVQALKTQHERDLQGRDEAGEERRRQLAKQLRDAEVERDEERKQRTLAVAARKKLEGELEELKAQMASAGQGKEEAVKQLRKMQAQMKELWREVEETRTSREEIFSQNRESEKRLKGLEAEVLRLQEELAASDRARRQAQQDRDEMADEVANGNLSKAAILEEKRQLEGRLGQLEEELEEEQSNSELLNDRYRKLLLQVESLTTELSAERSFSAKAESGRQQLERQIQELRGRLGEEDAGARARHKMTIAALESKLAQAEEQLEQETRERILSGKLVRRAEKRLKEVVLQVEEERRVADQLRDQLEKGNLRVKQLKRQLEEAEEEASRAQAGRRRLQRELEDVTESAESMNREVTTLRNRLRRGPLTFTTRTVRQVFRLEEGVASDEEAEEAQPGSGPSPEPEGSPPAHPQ
Activated CDC42 kinase 1, sequence (Q07912 whole entry): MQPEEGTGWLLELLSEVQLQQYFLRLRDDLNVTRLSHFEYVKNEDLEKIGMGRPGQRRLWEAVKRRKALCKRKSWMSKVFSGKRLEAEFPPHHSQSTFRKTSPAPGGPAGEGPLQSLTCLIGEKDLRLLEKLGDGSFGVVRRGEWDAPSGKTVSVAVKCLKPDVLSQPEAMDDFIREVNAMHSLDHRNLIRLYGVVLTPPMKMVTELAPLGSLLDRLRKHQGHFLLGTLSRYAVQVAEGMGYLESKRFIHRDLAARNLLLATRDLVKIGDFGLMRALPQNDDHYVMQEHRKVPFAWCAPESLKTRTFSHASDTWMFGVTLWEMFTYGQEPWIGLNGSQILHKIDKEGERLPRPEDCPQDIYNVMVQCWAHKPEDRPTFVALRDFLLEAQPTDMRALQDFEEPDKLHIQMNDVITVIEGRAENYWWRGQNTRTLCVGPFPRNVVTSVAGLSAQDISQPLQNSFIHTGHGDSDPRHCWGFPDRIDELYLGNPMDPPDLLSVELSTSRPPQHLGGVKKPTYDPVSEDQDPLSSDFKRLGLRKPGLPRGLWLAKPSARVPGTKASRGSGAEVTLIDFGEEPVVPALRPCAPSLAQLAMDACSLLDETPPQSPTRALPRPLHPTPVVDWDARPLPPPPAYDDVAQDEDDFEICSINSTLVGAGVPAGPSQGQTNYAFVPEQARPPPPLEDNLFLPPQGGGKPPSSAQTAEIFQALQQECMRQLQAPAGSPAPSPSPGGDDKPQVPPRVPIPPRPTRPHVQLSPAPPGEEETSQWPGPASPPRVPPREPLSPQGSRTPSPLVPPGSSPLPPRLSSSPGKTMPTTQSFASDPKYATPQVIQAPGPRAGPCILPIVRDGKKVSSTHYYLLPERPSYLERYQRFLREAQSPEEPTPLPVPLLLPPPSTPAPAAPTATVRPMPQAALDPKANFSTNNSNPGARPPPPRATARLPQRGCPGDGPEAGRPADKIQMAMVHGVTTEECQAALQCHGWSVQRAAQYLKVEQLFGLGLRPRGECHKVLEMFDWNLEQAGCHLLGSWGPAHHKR
Bone morphogenetic protein receptor type-1A, sequence (P36894 whole entry): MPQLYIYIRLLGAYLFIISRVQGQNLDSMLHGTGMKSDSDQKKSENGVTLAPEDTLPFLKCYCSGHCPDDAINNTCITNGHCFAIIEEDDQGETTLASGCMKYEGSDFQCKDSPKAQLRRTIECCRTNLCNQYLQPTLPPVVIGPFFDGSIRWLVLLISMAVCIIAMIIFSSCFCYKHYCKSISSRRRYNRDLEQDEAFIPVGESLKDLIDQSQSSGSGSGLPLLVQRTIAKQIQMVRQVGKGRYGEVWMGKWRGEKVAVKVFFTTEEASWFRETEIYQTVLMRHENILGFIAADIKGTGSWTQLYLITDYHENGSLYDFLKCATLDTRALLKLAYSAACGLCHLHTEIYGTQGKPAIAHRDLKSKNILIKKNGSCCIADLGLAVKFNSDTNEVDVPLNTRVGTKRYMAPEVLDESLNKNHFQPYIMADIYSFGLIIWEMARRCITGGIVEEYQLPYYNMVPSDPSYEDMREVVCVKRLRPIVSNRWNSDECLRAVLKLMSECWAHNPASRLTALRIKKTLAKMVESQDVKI
Proto-oncogene tyrosine-protein kinase Src, sequence (P12931 2-536 limits assumed): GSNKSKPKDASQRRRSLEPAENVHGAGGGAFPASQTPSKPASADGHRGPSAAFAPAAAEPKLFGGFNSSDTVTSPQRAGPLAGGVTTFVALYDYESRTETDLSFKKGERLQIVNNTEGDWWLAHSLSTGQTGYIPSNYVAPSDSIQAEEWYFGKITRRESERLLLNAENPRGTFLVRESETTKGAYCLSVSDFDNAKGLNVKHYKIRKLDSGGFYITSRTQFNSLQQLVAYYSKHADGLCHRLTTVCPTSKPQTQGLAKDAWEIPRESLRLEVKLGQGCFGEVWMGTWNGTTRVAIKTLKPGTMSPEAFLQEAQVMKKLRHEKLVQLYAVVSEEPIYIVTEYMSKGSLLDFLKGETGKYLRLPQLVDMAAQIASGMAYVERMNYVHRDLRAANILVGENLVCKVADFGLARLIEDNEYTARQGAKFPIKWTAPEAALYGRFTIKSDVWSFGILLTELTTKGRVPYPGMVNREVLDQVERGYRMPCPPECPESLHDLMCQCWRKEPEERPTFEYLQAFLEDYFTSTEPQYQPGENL

For `O=c1[nH]c([C@@H]2CCCN2)nc2c1oc1ccc(Cl)cc12`, the Kd (in [1]; in assay [2]; in [3]; in assay [4]; at Scaffold protein ILK; at LIM domain kinase 2) was > 30 µM (inactive) throughout. In addition, the Kd (in [5]; in assay [6]; in [7]; in assay [8]; at Myosin-14; in assay [9]) was > 30 µM (inactive) in each case. The Kd at Activated CDC42 kinase 1 is > 30 µM (inactive).
Take `O=C(O)c1ccc2c(c1)nc(Nc1cccc(Cl)c1)c1ccncc12` [SILMITASERTIB]: the Kd (in assay [1]; in assay [2]; in assay [3]; in assay [4]; on Scaffold protein ILK; at LIM domain kinase 2) was > 30 µM (inactive) each time. For the same compound, the Kd (in assay [5]; in assay [6]; in assay [7]; in [8]; on Myosin-14; in assay [9]) was > 30 µM (inactive) throughout. In addition, the Kd on Activated CDC42 kinase 1 was > 30 µM (inactive).
For `c1cc(OCCN2CCCCC2)cc(-c2n[nH]c3ccc(-c4nc[nH]n4)cc23)c1` [CC-401], the Kd in assay [1] was > 30 µM (inactive); in [2], > 30 µM (inactive); in assay [3], > 30 µM (inactive); in assay [4] it was 5.16 µM (active); at Scaffold protein ILK it was > 30 µM (inactive); at LIM domain kinase 2, > 30 µM (inactive). For the same compound, the Kd in [5] was > 30 µM (inactive); in assay [6] it was > 30 µM (inactive); in assay [7], > 30 µM (inactive); in assay [8] it was 0.217 µM (active); at Myosin-14, > 30 µM (inactive); in assay [9] it was > 30 µM (inactive). Moreover, the Kd at Activated CDC42 kinase 1 was > 30 µM (inactive).
As for `COc1cc2ncnc(Nc3ccc(O)cc3)c2cc1OC` [WHI-P131], the Kd (in [1]; in [2]; in assay [3]; in assay [4]; at Scaffold protein ILK; at LIM domain kinase 2) was > 30 µM (inactive) each time. For the same compound, the Kd (in [5]; in [6]; in assay [7]; in assay [8]; at Myosin-14; in [9]) was > 30 µM (inactive) throughout. For the same compound, the Kd at Activated CDC42 kinase 1 was > 30 µM (inactive).
With `O=C(Nc1ccc(OC(F)(F)F)cc1)c1sccc1NCc1ccnc2ccccc12` [OSI-930], the Kd (in [1]; in assay [2]; in assay [3]; in assay [4]; on Scaffold protein ILK; at LIM domain kinase 2) was > 30 µM (inactive) each time. Moreover, the Kd (in assay [5]; in [6]; in assay [7]; in assay [8]; on Myosin-14; in [9]) was > 30 µM (inactive) in each case. Further, on Activated CDC42 kinase 1, the Kd was > 30 µM (inactive).
In the case of `CC[C@@](C)(Nc1ccnc(-c2c[nH]c3ncccc23)n1)C(=O)NCC(F)(F)F` [DECERNOTINIB], the Kd (in assay [1]; in assay [2]; in [3]; in assay [4]; on Scaffold protein ILK; at LIM domain kinase 2) was > 30 µM (inactive) in each case. In addition, the Kd in assay [5] was 4.45 µM (active); in assay [6], > 30 µM (inactive); in assay [7], > 30 µM (inactive); in [8], > 30 µM (inactive); at Myosin-14 it was > 30 µM (inactive); in assay [9], > 30 µM (inactive). In addition, the Kd on Activated CDC42 kinase 1 is > 30 µM (inactive).
As for `O=S(=O)(c1cccc2c(O)nccc12)N1CCCNCC1` [HYDROXYFASUDIL], the Kd (in assay [1]; in [2]; in assay [3]; in assay [4]; at Scaffold protein ILK; at LIM domain kinase 2) was > 30 µM (inactive) throughout. In addition, the Kd (in [5]; in assay [6]; in assay [7]; in assay [8]; at Myosin-14; in [9]) was > 30 µM (inactive) throughout. Also, the Kd at Activated CDC42 kinase 1 is > 30 µM (inactive).
For `C[C@@H]1COC(Nc2ccc3ncnc(Nc4ccc(OCc5nccs5)c(Cl)c4)c3c2)=N1` [VARLITINIB], the Kd (in assay [1]; in [2]; in [3]; in [4]; on Scaffold protein ILK; on LIM domain kinase 2) was > 30 µM (inactive) in each case. Further, the Kd (in assay [5]; in assay [6]; in assay [7]; in assay [8]; at Myosin-14; in assay [9]) was > 30 µM (inactive) in each case. In addition, the Kd on Activated CDC42 kinase 1 was > 30 µM (inactive).
